Experiments:
[1] = molecular target: MpLBD, recombinant M. persicae ecdysone receptor (Myzus persicae, UniProt A3EZJ9); assay: manual radioligand-based competitive inhibition assay ([3H]ponasterone A), MpLBD; format: binding; conditions: for ability to compete with [3H]ponasterone A / bind to MpLBD (in words): radioligand-based assay
Experimental: The ability of inokosterone and fluorescent conjugates thereof to bind to recombinant M. persicae ecdysone receptor was assessed using the conventional radioligand binding assay in a competetive inhibition format (adapted from Koelle et al., 1991).
These procedures were performed manually, as follows. Assays were performed in EcR40 buffer [25 mM Hepes, 40 mM KCl, 10% glycerol, 1 mM sodium EDTA, 3 mM sodium azide] containing 0.5 mg/ml bovine serum albumin (BSA). An extract containing recombinant M. persicae edcdysone receptor, MpLBD, was prepared as described above and diluted in EcR40 buffer containing 0.5 mg/ml BSA to a concentration that generated filter counts around 10 000 cpm when the assay was done in the absence of competing ligands. […] Assays were set up to contain different final concentrations of fluorescent ecdysteroid by including the appropriate volumes of the relevant stock solutions. […] Each incubation was performed in a final volume of […] at room temperature (22° C.) for 90 min, whereupon it was held on ice until the filter adsorption/wash steps could be performed. Three 140 μl aliquots from each completed incubation were applied to glass microfibre filters (GF/C 24 mm diameter, Whatman, Cat. No. 1822024); i.e., every incubation generated three filters, each of which had been wet using 140 μl of the incubation mixture. After exposure to the liquid for 30 sec at room temperature, the wet filter was transferred to a vacuum sinter apparatus (Pyrex Filter Holder, Millipore Corp., Cat. No. XX1002500) and washed rapidly. Washing was done using 2×5 ml of ice-cold EcR40 buffer, intersperced with 3×0.5 ml buffer applied around the circumference of the filter to ensure that its edges were thoroughly rinsed. The damp filter was then transferred to a scintillation vial. When all the filters had been thus processed, 7 ml Packard InstaGel Plus scintillant was added to each scintillation vial. The sealed vials were vortexed and then incubated at room temperature for at least 2 h, during which time the filters became transparent. The vials were then scintillation counted (1 min per filter, tritium program, Packard TriCarb 2100TR scintillation counter). Datapoints were reported as the mean cpm value ±SEM for the three replicate filters arising from each incubation.
The inhibitor concentration at this midpoint was deemed to be the IC50 value for the inhibitor.

MpLBD = molecular target: T1, MpLBD (Myzus persicae, UniProt A3EZJ9); assay: FP titration of MB4628 with MpLBD; format: binding
T1 sequence (A3EZJ9 70-308): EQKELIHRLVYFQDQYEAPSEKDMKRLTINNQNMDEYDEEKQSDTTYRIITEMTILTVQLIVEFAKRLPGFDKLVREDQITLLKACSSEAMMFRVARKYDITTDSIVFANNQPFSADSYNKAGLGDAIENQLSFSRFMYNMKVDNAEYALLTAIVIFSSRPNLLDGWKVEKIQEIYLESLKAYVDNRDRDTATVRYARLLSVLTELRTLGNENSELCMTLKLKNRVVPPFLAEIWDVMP
T1 sequence (A3EZK0 32-259 partner): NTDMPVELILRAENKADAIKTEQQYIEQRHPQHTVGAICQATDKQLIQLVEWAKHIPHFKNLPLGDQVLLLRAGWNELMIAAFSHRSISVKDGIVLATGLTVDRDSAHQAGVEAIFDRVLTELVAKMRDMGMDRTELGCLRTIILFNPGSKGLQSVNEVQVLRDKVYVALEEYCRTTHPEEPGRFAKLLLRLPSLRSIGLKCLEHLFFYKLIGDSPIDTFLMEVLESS
Experimental: (§1) The standard FP assay buffer was 50 mM sodium phosphate, 100 mM NaCl, pH 7.4, containing 0.5 mg/ml bovine serum albumin. When required, preparative pipetting steps (such as dilution series) were typically done in conventional V-bottomed 96-well microplates (e.g. V-bottomed polypropylene, Greiner Bio-One, Cat. No. 651201). The assays themselves were set up in opaque black flat-bottomed 96-well plates designed for fluorescence measurements (e.g. Nunc, Cat. No. 237108). The final volume of all assays was 250 μl. The FP plate-reader was a POLARstar Optima (Cat. No. 413-201, BMG Labtechnologies, Offenburg, Germany) with fluorescence polarization optics (installed according to the manufacturer's instructions) and operated by FLUOstar Optima software in Plate Mode (Polarization). Excitation was done at 485 nm (filter 485) and emission was detected at 520 nm (filter 520p). The standard instrument setup involved a 3 sec/3 mm shake for the plate prior to commencing reading; readings used 200 flashes/assay. Gain values were typically around 3000 for each channel, with a K-factor close or equal to 1.0.
(§2) A 250 μl sample of 30 nM fluorescein in 50 mM sodium phosphate, 100 mM NaCl, pH 7.4, was known to have a polarization value of 35 mP and was used to calibrate the FP plate-reader.
Receptor LBD titrations involved mixing a small volume (e.g. 2.5 μl) of diluted receptor LBD heterodimer stock with a larger volume (e.g. 247.5 μl) of standard FP assay buffer containing 36 nM MB4628. Where indicated, CHAPS was present at a final concentration of 2 mM. […] The assay mixtures were allowed to reach equilibrium, typically by incubating overnight at 4° C. and then equilibrating at room temperature (20° C.) for 2-4 h before reading the mP values. […]
The inhibitor concentration at this midpoint was deemed to be the IC50 value for the inhibitor. […] The Kd values for use in this equation were calculated from the basic FP titration curves (FIG. 3) using the knowledge that the receptor concentration at the titration midpoint is the value at which the receptor is half-saturated with MB4628. […]

BtLBD = BtLBD (Bemisia tabaci, UniProt A0A142K0N3); assay: FP titration of MB4628 with BtLBD; format: binding; conditions: for Kd: 36 nM MB4628
Chain of BtLBD (A0A142K0N3 entry or part of it): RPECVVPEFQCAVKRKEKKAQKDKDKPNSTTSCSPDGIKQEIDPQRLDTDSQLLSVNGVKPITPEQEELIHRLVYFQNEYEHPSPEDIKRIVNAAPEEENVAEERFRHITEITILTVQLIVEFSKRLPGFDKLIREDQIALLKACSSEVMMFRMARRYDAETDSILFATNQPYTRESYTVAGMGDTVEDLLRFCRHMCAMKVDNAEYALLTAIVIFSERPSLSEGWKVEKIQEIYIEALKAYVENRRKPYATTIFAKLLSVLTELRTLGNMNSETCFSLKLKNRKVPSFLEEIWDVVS
Experimental: as §1, §2
Receptor LBD titrations involved mixing a small volume (e.g. 2.5 μl) of diluted receptor LBD heterodimer stock with a larger volume (e.g. 247.5 μl) of standard FP assay buffer containing 36 nM MB4628. Where indicated, CHAPS was present at a final concentration of 2 mM. Receptor dilutions were typically arranged to cover a wide concentration range, e.g. 0.005-50 nM functional receptor. The assay mixtures were allowed to reach equilibrium, typically by incubating overnight at 4° C. and then equilibrating at room temperature (20° C.) for 2-4 h before reading the mP values. When plotting the data, smooth curves were drawn for the FP titrations using a Flexicurve; these represent a more realistic fit to the data than the linear point-to-point plots shown (for convenience of printing) in FIG. 3.
The inhibitor concentration at this midpoint was deemed to be the IC50 value for the inhibitor. IC50 values were converted to Ki values using the Cheng-Prusoff equation (Cheng & Prusoff, 1973), as follows: Ki=IC50/(1+([MB4628]tot/Kd)) where [MB-4628]tot is the total concentration of MB4628 in the assay, and Kd is the dissociation constant for MB4628 with the relevant receptor under the conditions of the assay. The Kd values for use in this equation were calculated from the basic FP titration curves (FIG. 3) using the knowledge that the receptor concentration at the titration midpoint is the value at which the receptor is half-saturated with MB4628. The Kd is the free MB4628 concentration at this point, and must therefore be: Kd=[MB4628]tot−([receptor]midpoint)/2
The effect of omitting CHAPS from BtLBD competitive inhibition assays was tested directly. Thus, in a BtLBD experiment that departed from standard procedure, 10 nM functional BtLBD was incubated with 36 nM MB4628 and increasing concentrations of non-fluorescent ecdysteroids, but without CHAPS.

LcLBD = assay: FP titration of MB4628 with LcLBD; format: binding, Lucilia cuprina; conditions: 36 nM MB4628, no CHAPS
Experimental: as §1, with “Gain values were typically around 3000 for each channel, with a K-factor close or equal to 1.0.” left out
(§3) A 250 μl sample of 30 nM fluorescein in 50 mM sodium phosphate, 100 mM NaCl, pH 7.4, was known to have a polarization value of 35 mP and was used to calibrate the FP plate-reader. […] Thereafter, at the commencement of each experimental session, the FP plate-reader was adjusted to give a reading of 100 mP for a 250 μl sample of 36 nM MB4628 in standard FP assay buffer. […]

HaLBD = assay: FP titration of MB4628 with HaLBD; format: binding, Helicoverpa armigera; conditions: 36 nM MB4628, no CHAPS
Experimental: as §1, with “Gain values were typically around 3000 for each channel, with a K-factor close or equal to 1.0.” left out
as §3

## CC(CO)CC[C@@H](O)[C@](C)(O)[C@H]1CC[C@@]2(O)C3=CC(=O)[C@@H]4C[C@@H](O)[C@@H](O)C[C@]4(C)[C@H]3CC[C@]12C (some centres unmarked) [inokosterone]
[1]
  Ki: 65 nM

## CC(CCC(O)C(C)(O)C1CCC2(O)C3=CC(=O)C4CC(O)C(O)CC4(C)C3CCC12C)COC(=S)Nc1ccc2c(c1)C(=O)OC21c2ccc(O)cc2Oc2cc(O)ccc21 (centres unmarked) [MB4628]
[1]
  Ki: 40 nM
  ability to compete with [3H]ponasterone A / bind to MpLBD (in words): unimpaired
MpLBD; 36 nM MB4628, no CHAPS
  FP titration curve midpoint, MpLBD: 1.1-1.8 nM functional receptor
  maximum mP value (mPmax), MpLBD: 335 mP
MpLBD; without CHAPS, 36 nM MB4628, read-out: Kd for MB4628 from FP titration curve, MpLBD
  Kd: 35.3 nM
BtLBD; 36 nM MB4628, 2 mM CHAPS, FIG. 3B experiment
  FP titration midpoint, BtLBD, 2 mM CHAPS: 1.5 nM functional BtLBD
BtLBD; 36 nM MB4628, CHAPS-free, FIG. 3B experiment
  FP titration midpoint, BtLBD, CHAPS-free: 4.5 nM
BtLBD; 36 nM MB4628, no CHAPS
  mPmax, BtLBD: 210-260 mP
BtLBD; 36 nM MB4628, no CHAPS (FIG. 3A)
  FP titration curve midpoint, BtLBD: 1 to 5 nM functional receptor
BtLBD; Kd for MB4628, BtLBD without CHAPS, without CHAPS
  Kd: 34.7 nM
BtLBD; Kd for MB4628 from FP titration curve, BtLBD, with 2 mM CHAPS
  Kd: 35.3 nM
LcLBD
  FP titration curve midpoint, LcLBD: 2.5 nM functional receptor
  mPmax, LcLBD: 220 mP
HaLBD
  FP titration curve midpoint, HaLBD: 3.5 nM functional receptor
  mPmax, HaLBD: 230 mP

## CCN(CC)c1ccc2cc(NC(=O)OCC(C)CCC(O)C(C)(O)C3CCC4(O)C5=CC(=O)C6CC(O)C(O)CC6(C)C5CCC34C)c(=O)oc2c1 (centres unmarked) [MB4592]
[1]
  Ki: 20 nM
  ability to compete with [3H]ponasterone A / bind to MpLBD (in words): unimpaired

## COc1ccc2cc(NC(=O)OCC(C)CC[C@@H](O)C(C)(O)C3CC[C@@]4(O)C5=CC(=O)[C@@H]6C[C@@H](O)[C@@H](O)CC6(C)C5CCC34C)c(=O)oc2c1 (some centres unmarked) [MB4603]
[1]
  Ki: 40 nM
  ability to compete with [3H]ponasterone A / bind to MpLBD (in words): unimpaired

Reference: patent US20070292967A1, “Assay for Ligands of the Ecdysone Receptor” (COMMONWEALTH SCIENTIFIC AND INDUSTRIAL RESEARCH OR, priority 2003, published 2007)
